What all share (assay): LOEC (log10 uM (lowest observed effect concentration))
Compound in assay [1]: OCCC(F)(F)C(F)(F)C(F)(F)C(F)(F)C(F)(F)C(F)(F)C(F)(F)C(F)(F)F [8:2 Fluorotelomer alcohol]
The protocol: (§1)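 BioMAP Diversity Plus panel in human primary cell co-cultures, 4 concentrations in duplicate blinded samples. Responses are log10 fold change versus DMSO control, processed with tcpl v2.1.0. A hit is called when responses at any concentration exceed the cutoff (the larger of 3*bmad or log10(1.2)); the lowest observed effect concentration (modl_ga, log10 uM) is reported for hits.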

Compound in assay [2]: C=CC(=O)OCC(F)(F)C(F)(F)C(F)(F)C(F)(F)COC(=O)C=C [1H,1H,6H,6H-Perfluorohexane-1,6-diol diacrylate]
The protocol:
as §1

Compound in assay [3]: FC(F)(I)C(F)(F)C(F)(F)C(F)(F)C(F)(F)C(F)(F)I [1,6-Diiodoperfluorohexane]
The method, then: as §1

Compound in assay [4]: OCCCC(F)(F)C(F)(F)C(F)(F)C(F)(F)C(F)(F)C(F)(F)C(F)(F)C(F)(F)F [3-(Perfluorooctyl)propanol]
The method, then: as §1

Compound in assay [5]: OC(C(F)(F)F)(C(F)(F)F)C(O)(C(F)(F)F)C(F)(F)F [Perfluoropinacol]
The protocol: as §1

Compound in assay [6]: O=C(CC(=O)C(F)(F)C(F)(F)C(F)(F)F)c1cccs1 [(Perfluorobutyryl)-2-thenoylmethane]
The protocol: as §1

Compound in assay [7]: OCC(F)(F)C(F)(F)C(F)(F)C(F)(F)C(F)(F)C(F)(F)C(F)(F)C(F)(F)CO [1H,1H,10H,10H-Perfluorodecane-1,10-diol]
The protocol: as §1

± gives the standard deviation of the averaged measurements.

On to KF3CT IL1a down, for which the “LOEC (log10 uM)” value in assay [1] was 1.3; in assay [2], 1.54 ± 0.34; in assay [3], 1.3; in assay [4], 0.845.
For the test system LPS TissueFactor down, the “LOEC (log10 uM)” value in assay [1] came to 1.78; in assay [2], 1.3; in assay [3], 1.78; in assay [4], 1.31 ± 0.66; in assay [5] it was 1.78.
In the case of LPS VCAM1 down, the “LOEC (log10 uM)” value in assay [1] was 1.07 ± 0.32; in assay [2] it was 1.3; in assay [3], 1.54 ± 0.34; in assay [6] it was 1.78; in assay [4] it was 1.07 ± 0.32; in assay [5] it was 1.54 ± 0.34.
On to MyoF MMP1 down, for which the “LOEC (log10 uM)” value in assay [4] stood at 1.3.
Turning to KF3CT PAI1 down, the “LOEC (log10 uM)” value was determined as 1.3 in assay [1]; 1.3 in assay [2]; 0.845 in assay [3]; 1.07 ± 0.32 in assay [4]; 1.78 in assay [5]; 1.78 in assay [7].
Consider IMphg IL1a down, for which the “LOEC (log10 uM)” value in assay [4] and in assay [7] was 1.78 each time.
With 3C IL8 down, the “LOEC (log10 uM)” value in assay [1] came out at 1.78; in assay [2] it was 1.54 ± 0.34; in assay [3], 1.54 ± 0.34; in assay [6] it was 0.845; in assay [4] it was 1.3; in assay [5] it was 1.78.
CASM3C SRB down: the “LOEC (log10 uM)” value in assay [1] stood at 1.78; in assay [2] it was 1.78; in assay [3], 1.3; in assay [6], 1.78; in assay [4], 1.54 ± 0.34; in assay [5], 1.78.
MyoF bFGF down: the “LOEC (log10 uM)” value came to 1.3 in assay [1], 1.3 in assay [2], 0.845 in assay [3] and 1.3 in assay [4].
Consider SAg CD69 down, for which the “LOEC (log10 uM)” value is 1.54 ± 0.34 in assay [1]; 1.3 in assay [2]; 1.78 in assay [3]; 0.845 in assay [6]; 1.54 ± 0.34 in assay [4]; 1.3 in assay [5].
Turning to BF4T ICAM1 down, the “LOEC (log10 uM)” value in assay [1] was 1.78; in assay [2], 1.3; in assay [3] it was 1.07 ± 0.32; in assay [6] it was 1.78; in assay [4], 1.3; in assay [7], 1.3.
In the case of KF3CT MIG down, the “LOEC (log10 uM)” value in assay [1] came to 1.54 ± 0.34; in assay [2], 1.3; in assay [3], 1.07 ± 0.32; in assay [4], 1.3; in assay [5] it was 1.78; in assay [7], 1.78.
For MyoF PAI1 down, the “LOEC (log10 uM)” value in assay [1] is 1.3; in assay [2] it was 1.3; in assay [3] it was 1.07 ± 0.32; in assay [4] it was 1.3; in assay [5], 1.78.
For the test system BF4T MMP3 down, the “LOEC (log10 uM)” value in assay [3] came to 1.3; in assay [6], 1.54 ± 0.34; in assay [4], 1.78.
With BE3C uPA down, the “LOEC (log10 uM)” value in assay [1] is 1.78; in assay [2], 1.54 ± 0.34; in assay [3] it was 1.78; in assay [6] it was 1.78; in assay [4] it was 1.78; in assay [5] it was 1.78.
On to MyoF CollagenI down, for which the “LOEC (log10 uM)” value in assay [1] is 1.3; in assay [2], 1.3; in assay [3] it was 0.845; in assay [6], 1.3; in assay [4] it was 1.3; in assay [5] it was 1.78.
Regarding MyoF CollagenIV down, in assay [2], the “LOEC (log10 uM)” value was 1.3.
As for KF3CT MCP1 down, the “LOEC (log10 uM)” value in assay [1] was 1.3; in assay [2], 1.07 ± 0.32; in assay [3], 0.845; in assay [4], 1.3; in assay [7] it was 1.78.
As to CASM3C MCP1 up, in assay [5], the “LOEC (log10 uM)” value came to 1.54 ± 0.34.
KF3CT ICAM1 down: the “LOEC (log10 uM)” value in assay [1] amounted to 1.3; in assay [2], 1.3; in assay [3], 1.07 ± 0.32; in assay [4], 1.3; in assay [7], 1.78.
On to KF3CT ICAM1 up, for which the “LOEC (log10 uM)” value in assay [5] is 1.78.
As to BF4T SRB down, the “LOEC (log10 uM)” value in assay [1] was 1.54 ± 0.34; in assay [3], 1.3; in assay [6] it was 1.78; in assay [4], 1.3; in assay [7], 1.78.
As to SAg CD38 down, the “LOEC (log10 uM)” value in assay [1] is 1.3; in assay [2] it was 1.3; in assay [3] it was 1.78; in assay [6], 1.07 ± 0.32; in assay [4], 1.3; in assay [5], 1.3.
BF4T MMP9 down: the “LOEC (log10 uM)” value in assay [1] worked out at 1.3; in assay [2], 1.54 ± 0.34; in assay [3] it was 1.07 ± 0.32; in assay [6], 1.3; in assay [4], 1.3; in assay [7], 1.78.
